From patent US20240115644A1, “COMPOSITION FOR PREVENTING, IMPROVING OR TREATING GASTRITIS OR PEPTIC ULCER COMPRISING EXTRACT OF CINNAMOMUM CASSIA, FRACTION OF SAID EXTRACT, ISOLATE OF SAID FRACTION OR COMPOUNDS ISOLATED THEREFROM” (CHONG KUN DANG PHARMACEUTICAL CORP., priority 2020, published 2024)

Tests used:
[1] = test system: indomethacin-induced gastric ulcer; test: Gastric ulcer index / inhibition rate in indomethacin-induced animal model; assay type: in vivo, rats; settings: for Inhibition rate (%): gastric ulcer, rats, stomach excised 5 h after; for gastric ulcer inhibition rate compared to Stillen and Rebamipide (in words) / level of gastric ulcer inhibition rate despite the very small amount (in words): indomethacin-induced rats, summary of Table 13 and FIG. 7
Source text: [Measurement of gastric ulcer inhibitory effect in animals]
Experimental Example 2. Confirmation of Gastric Ulcer Inhibition Rate
Evaluation of Gastric Ulcer Index in Indomethacin-Induced Animal Model
For test animals, 7-week-old male rats without specific pathogens (SPF) were randomly distributed to each group by a randomized method so that the average body weight was distributed as evenly as possible after the adaptation period (7 days). The administration route was single administration of artemisia extract, and rebamipide and ethyl acetate pretreated water extract of Cinnamomum cassia, fraction (N2-1), 3,4-dihydroxybenzaldehyde, ferulic acid, 4-hydroxycinnamaldehyde, as oral administration, respectively, and the dose was calculated and administered as 10 mL/Kg based on the body weight measured on the day of administration. All animals were fasted 48 hours before administration of the test substance and control drug, and then each test substance and control drug were orally administered, and at 30 minutes after administration, indomethacin prepared in advance was orally administered at a dose of 80 mg/kg. After anesthesia with diethyl ether at 5 hours after administration of indomethacin, the stomach was excised and the gastric mucosa was photographed with a digital camera. The area of the damaged part was analyzed using ImageJ software (NIH, Bethesda, MD). The gastric ulcer index was measured according to the following equation.
Gastric ulcer index (%)=(damaged area/total area)×100 [Equation 2]

Raw 264.7 cells = test: Nitric oxide (NO) production inhibitory activity in LPS-stimulated Raw 264.7 cells (Griess reagent); assay type: cell-based; set-up: NO inhibition rate (%): concentration or dose not given beside the values; settings: for NO: Raw 264.7 cells, LPS 100 ng/ml, sample concentration not given; for NO inhibition rate (%): vs LPS-only group
Experimental: [Measurement of Anti-Inflammatory Effect in Raw 264.7 Cells] Experimental Example 1. Confirmation of Nitric Oxide Production Inhibitory Activity Nitric oxide (NO) measurement was measuring the amount of nitric oxide (NO) in the supernatant of cells as nitrite and nitrate. The safe form after oxidation from nitrite to nitrate was measured using a griess reagent (Sigma, USA). In a […], 3×10^5 cells were cultured for 24 hours. […] Then, all wells except the normal group were stimulated by adding 100 ng/ml Lipopolysaccharide (LPS). After reacting with the griess reagent for 5 minutes, the absorbance was measured at 540 nm. The calibration curve was prepared using sodium nitrite solution, and the concentration of nitrite was calculated through absorbance. The NO inhibition rate was evaluated by a method of comparing with the group treated only with LPS according to Equation 1 below. The result was shown in the following Tables 7, 8, 9, 10, 11 and 12 and FIGS. 2, 3, 4 and 5. NO inhibition rate (%)=100−[(NO production amount of sample addition group*×100)/NO production amount of sample non-addition group*] [Equation 1] *Lipopolysaccharide (LPS) treatment group

[2] = single oral dose 1.5 mg/kg 30 min before indomethacin 80 mg/kg p.o.
[3] = Prep-HPLC purified products from N2-1
[4] = Prep-HPLC purified products from R2-2

SMILES	gastric ulcer inhibition rate compared to Stillen and Rebamipide (in words) [1]	level of gastric ulcer inhibition rate despite the very small amount (in words) [1]	NO (Raw 264.7 cells; [3])	NO inhibition rate (%) (Raw 264.7 cells; [3])	NO (Raw 264.7 cells; [4])	NO inhibition rate (%) (Raw 264.7 cells; [4])	other results
COc1cc(/C=C/C(=O)O)ccc1O [Compound A, ferulic acid]	excellent gastric ulcer inhibition rate	very high level of gastric ulcer inhibition rate	49.57 µM	0%			Inhibition rate (%) [1, 2]: 61.8%
O=C(NC(Cc1cc(=O)[nH]c2ccccc12)C(=O)O)c1ccc(Cl)cc1 (stereo not shown) [Rebamipide, reference compound]							Inhibition rate (%) ([1]; single oral dose 30 mg/kg 30 min before indomethacin 80 mg/kg p.o.): 21.5%
O=C/C=C/c1ccc(O)cc1 [Compound B, 4-hydroxycinnamaldehyde]	excellent gastric ulcer inhibition rate	very high level of gastric ulcer inhibition rate	35.18 µM	29%			Inhibition rate (%) ([1]; single oral dose 2.0 mg/kg 30 min before indomethacin 80 mg/kg p.o.): 46.1%
COc1cc(C(=O)O)cc(OC)c1O [Compound E, syringic acid]					47.83 µM	0%	
COc1cc(C(=O)O)ccc1O [Compound F, vanillic acid]					49.88 µM	0%	
O=Cc1ccc(O)c(O)c1 [Compound D, 3,4-dihydroxybenzaldehyde]	excellent gastric ulcer inhibition rate	very high level of gastric ulcer inhibition rate			44.41 µM	10%	Inhibition rate (%) [1, 2]: 61.3%
O=C(O)CCc1ccccc1O [Compound C, 3-(2-hydroxyphenyl)propanoic acid]			48.54 µM	0%			
